Patent US20240156083A1, “CRYOBIOPRINTING FOR TISSUE FABRICATION AND STORAGE” (THE BRIGHAM AND WOMEN'S HOSPITAL, INC., priority 2022, published 2024)
Blank lines part the entries; values can stand above or below the compound they belong to.

Tests used:
C2C12 cells [1] = assay: Live/Dead viability in vertically cryobioprinted GelMA constructs; type: cell-based, mouse; details: 7.5% GelMA
Text: The C2C12 myoblast-laden cryobioprinted samples containing DMSO and melezitose were subjected to Live/Dead assays on Days 1, 3, and 7. The 7.5% GelMA bioinks containing different concentrations (5%, 10%, and 15%) of DMSO were initially used to gain understanding on its cryoprotectant effect. The optimum concentration of DMSO was found at 10% for maximizing cell viability in the absence of the saccharide. GelMA bioinks containing different concentrations (4%, 8%, and 12%) of melezitose in the absence of DMSO were separately used for optimizing the melezitose effect. […] Therefore, the GelMA bioink combined with 8% melezitose and 10% DMSO was determined as the optimum formulation for cell-laden vertical cryobioprinting, and used in the following cellular experiments. […]
Cell viability was assessed by staining with calcein-AM at 0.5 μL mL^−1 and ethidium homodimer-1 at 2 μL mL^−1 (Thermo Fisher Scientific). Cell viability imaging was done using an inverted Eclipse-Ti fluorescence microscope (Nikon). Cell viability was quantified by counting live and dead cells using the ImageJ software (National Institutes of Health). After loading the image, we would adjust the threshold to highlight all of the cells that need to be counted, and convert the image to a binary image. The number of live cells was then determined in the image. […]

C2C12 cells [2] = assay: Live/dead cell viability after 72 h cryopreservation in GelMA with DMSO and saccharides; type: cell-based, mouse; details: C2C12 in 5% (w/v) GelMA; for most effective saccharide concentration for cell viability increase: 72 h cryopreservation, normalized to control with same DMSO concentration
Method: A series of cell viability experiments were conducted using different concentrations of DMSO and saccharides to find the optimized configuration of CPAs in GelMA. […] The cell-laden bioink was used to produce samples containing different concentrations of DMSO and saccharides at room temperature (RT). The cast samples were then directly transferred to −80° C. for 24 h, conventionally cryopreserved in liquid nitrogen for 72 h, crosslinked via UV exposure, and underwent live/dead assays. […] By using the fluorescence images, the cell viability ratios of C2C12 cells were determined. […] Cell viability of each group was normalized to the control group with the same DMSO concentration to choose the most functional saccharide and its optimum concentration (FIG. 3, B to D). […] Ninety-six groups of GelMA samples (four DMSO concentrations, four saccharide concentrations, and six types of saccharides) were studied to identify the optimal CPA configuration. C2C12 cells were encapsulated in the GelMA/CPAs precursor. A volume of 50 μL of the cell-laden precursor was directly cast on a freezing plate in aseptic conditions. […] On day 3, the samples were removed from cryogenic storage and directly crosslinked via UV exposure. The samples were washed in PBS to remove any excess CPAs in preparation for subsequent use. Cell viability was quantified within unthawed cell-encapsulated samples to identify the optimal combination of CPAs. Following the crosslinking and washing steps, the hydrogel samples were cultured for a definite period and then stained using calcein-AM and ethidium homodimer-1 (Thermo Fisher Scientific) per the provider's protocol. An inverted Eclipse-Ti fluorescence microscope (Nikon) was employed to image the live and dead cells in green and red channels, respectively. The ratio of live cells to the total captured cells in random regions of the samples was determined through processing the fluorescent images using ImageJ.

[3] = Ice crystal-formation imaging, fractal dimension (FD) analysis; type: physicochemical; details: GelMA bioink, 90% of field of view frozen, versus DMSO-free control
Text: One critical factor that affects cell viability during cryopreservation is the formation of ice crystals (Cheng Y, et al., Small 15, 1904290). The spicular ice crystals can damage the cell membrane, resulting in lower cell viability. […] The addition of CPAs noticeably affected the shape of ice crystals. In the control sample (without DMSO), the ice crystals were more spicular and formed faster than the other study groups. Increasing the DMSO concentration led to the formation of fine ice crystals; however, no remarkable improvement in ice-crystallization was observed when the saccharide concentration was increased, as the saccharide merely prevents osmotic damage to the cells. The fractal dimension (FD) theory, in conjunction with an image processing method, was employed to quantitatively compare the smoothness and the growth rate of the ice crystals. The FD value quantifies the geometry's irregularities. In our analysis, ice crystals' boundaries were extracted from the brightfield images and digitized. The FD value for the resulting quasi-circle geometry was then calculated using equation (1) (Chen Y, Math. Probl. Eng 2020, 7528703).
, where P and A stand for the perimeter and the area of the quasi-circle geometry, respectively. FD is an indicator of how the quasi-circle geometry deviates from a circle. […] When 90% of the field of view was frozen, the FD values were recorded and compared. […]

[4] = Splat ice recrystallization-inhibition assay; type: physicochemical; details: GelMA, Tp −20° C., 30 min, increasing DMSO concentration
Method: To further confirm the effect of CPAs on inhibiting ice-recrystallization, a modified splat assay was employed. […] Smaller crystal size is an indication of enhanced ice recrystallization-inhibition (Tomczak MM, et al., Biochem. Biophys. Res. Commun 311, 1041-1046).
The splat cooling assay was performed following the previously developed protocols (Georgiou PG, et al., J. Am. Chem. Soc 143, 7449-7461). Briefly, 10 μL of samples with different DMSO concentrations was added between two glass coverslips. The coverslips were placed on the freezing plate (Tp=−20° C.) for 30 min. Images were then obtained using an optical microscope (Nikon) and processed by ImageJ (National Institutes of Health) to determine the ice crystal size in each group.

[5] = cited from earlier work
[6] = previously reported (Tada N, et al.); cited from earlier work

FD value of ice crystals [3]: significantly decreased | average size of the ice crystals [4]: significantly decreased
Compound: C[S+](C)[O-] [DMSO, Dimethylsulfoxide]
optimum concentration of DMSO for maximizing cell viability (C2C12 cells [1]; absence of the saccharide): 10% | optimum concentration of DMSO (C2C12 cells [2]; for the selected sugar types, versus DMSO-free group): 10 % (v/v)

Compound: OC[C@H]1O[C@@H](O[C@H]2[C@H](O)[C@@H](O)C(O)O[C@@H]2CO)[C@H](O)[C@@H](O)[C@H]1O (stereo partly drawn) [Lactose, D-lactose]
most effective saccharide concentration for cell viability increase (C2C12 cells [2]): 4 % (w/v)

Compound: OC[C@H]1O[C@@](CO)(O[C@H]2O[C@H](CO)[C@@H](O)[C@H](O)[C@H]2O)[C@@H](O[C@H]2O[C@H](CO)[C@@H](O)[C@H](O)[C@H]2O)[C@@H]1O [Melezitose, D-(+)-melezitose hydrate]
melezitose concentration leading to highest cell viability (C2C12 cells [1]; absence of DMSO): 8% | Solubility at 20° C. [5]: 781 mg/mL | most effective saccharide concentration for cell viability increase (C2C12 cells [2]): 12 % (w/v)

Compound: OC[C@H]1O[C@H](OC[C@H]2O[C@H](O[C@]3(CO)O[C@H](CO)[C@@H](O)[C@@H]3O)[C@H](O)[C@@H](O)[C@@H]2O)[C@H](O)[C@@H](O)[C@H]1O [Raffinose, D-(+) raffinose pentahydrate]
concentration effective as CPA [6]: 10-18 % (w/v) | most effective saccharide concentration for cell viability increase (C2C12 cells [2]): 4 % (w/v)
